# Experiments:
# rBMEC = assay: Cell viability assessment, CCK-8 assay; conditions: 37°C, 4 h
# Description: The cytotoxic effects of the test agents used in this study were assessed on confluent monolayers of cells in 96-well plates using a CCK-8 assay. Cells were subjected to a 200 μL/well of each drug in Hanks’ solution at the concentrations used in the experiments, followed by incubation for another 4 h. Then, 10 μL Cell Counting Kit-8 (CCK8, Dojindo) solution was added to each well. Plates were incubated for additional 4 h. Absorbance readings at 450 nm were obtained using a spectrophotometer (Thermo Varioskan) and expressed as percentage viability compared to control untreated cells.
# [1] = system: rBMEC (primary cultured rat brain microvascular endothelial cells); assay: Transporter inhibition assays: Rb1 uptake into rBMEC in presence of inhibitors; assay type: in vitro ADME; conditions: Rb1 60 μg/mL, 37°C; for effect on Rb1 uptake into rBMEC versus control: 120 min
# Description: In the present study, the uptake at 120 min was selected to measure the effect of test agents on the transport characteristics of Rb1. Rb1 concentration was set to be 60 μg/mL. The rBMEC was seeded out in 6-well plates, allowed to adhere, and grown to confluency. To study the transport mechanisms, uptake of Rb1 was carried out in the presence of a metabolic energy inhibitor and a series of established transporter inhibitors. The impact of these inhibitors on Rb1 uptake by rBMEC was assessed at the steady state at 37°C. NaN3 (500 μM), probenecid (100 μM), CsA (25, 50, and 100 μM), or phloretin (5 μM) was added to inhibit different transport systems. In the inhibition study, to further assess the effect of phloretin on Rb1 uptake into rBMEC, the cells were incubated at 37°C at a set time (5, 15, 30, 60, and 120 min). Uptake was measured after incubation with Rb1 in the presence of phloretin at the concentration of 5 μM.
# HPLC–MS/MS was composed by a Shimadzu LC-20A chromatographic system and an API 4000 mass spectrometer equipped with electrospray ionization (ESI) source system. MS/MS detection was performed on an API 4000 mass spectrometer using multiple reaction monitoring (MRM) mode by monitoring the fragmentation of m/z 1107.6 → 179.0 for Rb1 and m/z 779.4 → 345.2 for digoxin (IS). Chromatographic separations were carried out on a Shim-pack XD-ODS column (2.0 mm × 30 mm, 2.2 μm) with a Shim-pack GVD-ODS (2.0 mm × 5 mm, 4.6 μm) guard column (Shimadzu, Japan) at a flow rate of 0.28 mL/min using 10 mM acetic acid in water (phase A) and methanol (phase B) as mobile phase. A linear step gradient elution was performed as followed: phase B was increased from 45 to 90% within the first 3 min, and decreased to 45% within the next 3 min (total gradient time: 6 min). A 10 μL sample was injected into the system with the auto-sample conditioned at 4°C and column temperature maintained at 40°C.
# The biological samples (100 μL) were placed in a 1.5 mL Eppendorf tube, and mixed with 10 μL IS solution (500 ng/mL) for 3 min by vortexing. The mixture was extracted with methanol (0.9 mL) by vortexing, and then centrifuged at 14,000 rpm for 5 min. The supernatant (0.8 mL) was transferred to a new 1.5 mL Eppendorf tube and evaporated to dryness under vacuum. The dried residue was reconstituted with 100 μL methanol, vortex-mixed for 30 s, and centrifuged at 14,000 rpm for 5 min. Finally, 10 μL of the supernatant liquid was immediately subjected to HPLC–MS/MS analysis. The system control and data analysis were performed by AB Sciex Analyst software (the software version: Analyst 1.5.1).
# GLUT1 [2] = target: T1, GLUT1 (Rattus norvegicus, UniProt P11167); assay: Competitive inhibition of Rb1 uptake by rBMEC by D-glucose (Lineweaver-Burk plot); assay type: in vitro ADME; conditions: 100 mM D-glucose, Rb1 30-960 μg/mL, 37°C, 120 min
# T1 construct: GLUT1, as the major GLUT isoform expressed in brain endothelial cells; endogenous in cells; host or cells: primary cultured rat brain microvascular endothelial cells (rBMEC)
# T1 sequence (P11167 1-492): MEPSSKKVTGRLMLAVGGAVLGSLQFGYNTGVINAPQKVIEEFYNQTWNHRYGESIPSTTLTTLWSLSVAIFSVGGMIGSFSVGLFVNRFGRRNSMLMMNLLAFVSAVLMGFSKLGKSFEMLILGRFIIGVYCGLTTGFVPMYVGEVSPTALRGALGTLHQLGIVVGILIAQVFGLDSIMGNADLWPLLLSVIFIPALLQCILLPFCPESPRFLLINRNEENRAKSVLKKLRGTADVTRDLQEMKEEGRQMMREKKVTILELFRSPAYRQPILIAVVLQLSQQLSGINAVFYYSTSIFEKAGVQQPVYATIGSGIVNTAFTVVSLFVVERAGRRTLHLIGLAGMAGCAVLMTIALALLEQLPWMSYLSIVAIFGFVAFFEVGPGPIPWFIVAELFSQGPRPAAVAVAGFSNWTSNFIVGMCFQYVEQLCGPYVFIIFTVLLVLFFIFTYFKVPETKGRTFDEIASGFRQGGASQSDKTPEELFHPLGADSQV
# Description: In the competition experiments, Rb1 uptake (30–960 μg/mL) was measured in the absence and presence of D-glucose (100 mM) which is a principal physiological substrate of GLUT1. Briefly, cells were grown in 6-well plates for 7 days before their medium was removed, pre-incubated with warm glucose-free Hanks’ solution for 30 min. Subsequently, samples and controls were treated as described transport studies, but this time in addition with 100 mM D-glucose to the various concentrations of Rb1 in glucose-free Hanks’ solution at 37°C for 120 min.
# GLUT1 [3] = target: GLUT1; set-up: method as in Burant and Bell, 1992; conditions: ref Burant and Bell, 1992; read-out: Ki of GLUT1 for glucose; cited from earlier work
# [4] = set-up: method as in Li et al., 2007; conditions: rats, TPNS injection 10.0 mg/kg intravenous; ref Li et al., 2007; cited from earlier work
# GLUT1 [5] = assay: Western blot, GLUT1 expression in rBMEC; assay type: cell-based, rat; conditions: phloretin 5 μM together with Rb1 60 μg/mL; at 30, 60 and 120 min
# Description: (§1) Total proteins were extracted and 60 μg of each protein was separated on SDS-10% polyacrylamide gels. Proteins on the gel were transferred to PVDF membrane (Merck-Millipore). Blots were blocked with 5% skimmed milk dissolved in PBS containing 0.1% Tween-20 (PBST) for 2 h at room temperature. The membrane was incubated with primary antibody at 4°C overnight. Washing of the blots with PBST three times was followed by incubation with horseradish peroxidase-conjugated secondary antibody for 2 h at room temperature. After washing, the chemiluminescence signal was monitored using the ChemiDoc XRS+ system (Bio-Rad, Hercules, CA, United States). Densitometric semi-quantitative analysis of protein bands was carried out using Image J.
# GLUT3 = assay: Western blot, GLUT3 expression in rBMEC; assay type: cell-based, rat; conditions: phloretin 5 μM together with Rb1 60 μg/mL
# Description: as §1
# GLUT1 [6] = assay: Western blot, GLUT1 expression in normal rat brain; assay type: in vivo; conditions: phloretin 5 mg/kg i.v. for 1 week, P < 0.05
# Description: Rats were randomly divided into two groups in 36 of each group. One group served as the control and another group were treated with phloretin. Dose of phloretin was set to be 5 mg/kg. Rb1 (10 mg/kg, i.v.) was administered to the experimental rats after i.v. administration of phloretin or saline for consecutive 1 week. Six rats from each group were selected and the blood samples were collected into heparinized Eppendorf tubes via the abdominal aorta at 0.5, 2, and 6 h after Rb1 administration. Then, brain samples were immediately collected. The plasma samples were obtained by centrifuging at 1000 × g for 10 min. Plasma and brain samples were frozen at -80°C until analysis. Total proteins were extracted and 60 μg of each protein was separated on SDS-10% polyacrylamide gels. Proteins on the gel were transferred to PVDF membrane (Merck-Millipore). Blots were blocked with 5% skimmed milk dissolved in PBS containing 0.1% Tween-20 (PBST) for 2 h at room temperature. The membrane was incubated with primary antibody at 4°C overnight. […] After washing, the chemiluminescence signal was monitored using the ChemiDoc XRS+ system (Bio-Rad, Hercules, CA, United States). Densitometric semi-quantitative analysis of protein bands was carried out using Image J.
compound,measurement,setting,value
"C=C1[C@@H](C)[C@H]2[C@H](Cc3ccccc3)NC(=O)[C@]23OC(=O)/C=C/C(=O)CCC[C@@H](C)C/C=C/[C@H]3[C@@H]1O [CsA, cytochalasin A]",viability of rBMEC versus control (CCK-8),"rBMEC; CsA 25, 50 and 100 μM",no statistically significant differences
same,effect on Rb1 uptake into rBMEC versus control,"[1]; CsA 25, 50 and 100 μM",no statistically significant differences
OC[C@H]1OC(O)[C@H](O)[C@@H](O)[C@@H]1O (stereo partly drawn) [D-glucose],Ki,GLUT1 [2],885 µM
same,Ki,GLUT1 [3],~1000 µM
"[N-]=[N+]=[N-].[Na+] [NaN3, sodium azide]",viability of rBMEC versus control (CCK-8),rBMEC; NaN3 500 μM,no statistically significant differences
same,effect on Rb1 uptake into rBMEC versus control,[1]; NaN3 500 μM,no statistically significant differences
"CC(C)=CCC[C@](C)(O[C@@H]1O[C@H](CO)[C@@H](O)[C@H](O)[C@H]1O)[C@H]1CC[C@]2(C)[C@@H]1[C@H](O)C[C@@H]1[C@@]3(C)CC[C@H](O)C(C)(C)[C@@H]3[C@@H](O[C@@H]3O[C@H](CO)[C@@H](O)[C@H](O)[C@H]3O)C[C@]12C [Rg1, ginsenoside Rg1]",duration in brain tissue,[4],~1 h
same,largest content in brain tissue,[4],about 0.2 μg/g
O=C(CCc1ccc(O)cc1)c1c(O)cc(O)cc1O [phloretin],expression level of GLUT1 in rBMEC versus control,GLUT1 [5],significantly lower
same,expression level of GLUT3 in rBMEC versus control,GLUT3,no significant difference
same,expression level of GLUT1 in brain versus untreated normal rats,GLUT1 [6],significantly decreased
same,viability of rBMEC versus control (CCK-8),rBMEC; phloretin 5 μM,no statistically significant differences
same,"effect on cell-to-medium (C/M) ratio of Rb1, time course","[1]; phloretin 5 μM, 5-120 min, especially from min 30 to 120",significantly decreased
same,effect on Rb1 uptake into rBMEC versus control,"[1]; phloretin 5 μM, P < 0.01",significant decrease
CCCN(CCC)S(=O)(=O)c1ccc(C(=O)O)cc1 [probenecid],viability of rBMEC versus control (CCK-8),rBMEC; probenecid 100 μM,no statistically significant differences
same,effect on Rb1 uptake into rBMEC versus control,[1]; probenecid 100 μM,no statistically significant differences
